Source: publication PMC7868322, “Rational Design of A Novel Small-Molecule HIV-1 Inactivator Targeting Both gp120 and gp41 of HIV-1” (Frontiers in Pharmacology, 2021)
Like-named read-outs stand apart in the source and are kept apart here.

Experiments:
[1] = system: T2635-resistant virus H3C; assay: microbe, parasite or virus in culture; assay type: cell-based, HIV-1; conditions: Human immunodeficiency virus 1
HIV-1 IIIB (X4) = assay: Inhibition of HIV-1 infection (p24 ELISA); assay type: cell-based; conditions: Human immunodeficiency virus 1, MT2; laboratory-adapted strain IIIB, MT-2 cells, p24 ELISA; read-out: IC50, inhibition of HIV-1 IIIB infection
HIV-1 Bal (R5) = assay: Inhibition of HIV-1 infection (p24 ELISA); assay type: cell-based; conditions: Human immunodeficiency virus 1; laboratory-adapted strain Bal, CEMx174 5.25 M7 cells, p24 ELISA; read-out: IC50, inhibition of HIV-1 Bal infection
SM145/GS 016 (C, R5) = assay: Inactivation of cell-free HIV-1 clinical virus; assay type: cell-based; conditions: Human immunodeficiency virus 1, inactivation of cell-free virions, means ± SD
[2] = system: T20-resistant virus V38A N42D; assay type: cell-based, HIV-1; conditions: inactivation of cell-free virions, means ± SD
PBL288 (C, R5) = assay: Inactivation of cell-free HIV-1 clinical virus; assay type: cell-based; conditions: Human immunodeficiency virus 1, inactivation of cell-free virions, means ± SD
KNH1135 (A, R5) = assay: microbe, parasite or virus in culture; assay type: cell-based, HIV-1; conditions: Human immunodeficiency virus 1; inactivation of cell-free virions, clinical virus KNH1135 (A, R5); means ± SD
[3] = system: T20-resistant virus V38A N42T; assay type: cell-based, HIV-1; conditions: means ± SD
[4] = system: T2635-resistant virus Q66R N113E; assay type: cell-based, HIV-1; conditions: inactivation of cell-free virions, means ± SD
[5] = system: T2635-resistant virus Q66R N126K; assay type: cell-based, HIV-1; conditions: means ± SD
T20-resistant virus V38A = assay type: cell-based, HIV-1; conditions: means ± SD
[6] = system: T20-resistant virus V38E N42S; assay type: cell-based, HIV-1; conditions: inactivation of cell-free virions, means ± SD
D36G (NL4-3 WT) = assay type: cell-based, HIV-1; conditions: inactivation of cell-free virions, T20-resistant panel D36G (NL4-3 WT); means ± SD
[7] = system: T2635-resistant virus K90E N126K; assay type: cell-based, HIV-1; conditions: inactivation of cell-free virions, means ± SD
93/BR/020 (F, R5 and X4) = assay: Inhibition of HIV-1 clinical virus infection; assay type: cell-based; conditions: Human immunodeficiency virus 1; HIV-1 clinical virus 93/BR/020 (F, R5 and X4); means ± SD
Cytotoxicity (CCK-8) = assay type: cell-based; conditions: human
Protocol: Cell viability was detected following the instructions in the protocol provided in the cell counting kit-8 (CCK-8; Dojindo Molecular Technologies, Gaithersburg, MD, USA) as previously described ([Yang et al., 2018]). Briefly, MT-2 cells and CEMx174 517 5.25 M7 cells (3 × 10^4/well) were incubated with compounds at different concentrations at 37°C for 48 h. Then, the supernatant was discarded, and CCK8 diluted 10 times with fresh medium was added (200 μL/well). After 2–6 h of incubation at 37°C, the absorbance at 450 nm was measured using a microplate reader (Tecan, Männedorf, Switzerland).

WT (LAI) = assay: microbe, parasite or virus in culture; conditions: Human immunodeficiency virus 1
Protocol: The inactivation activities of the compounds, alone or in combination, against different cell-free HIV-1 virions were measured as previously described ([Qi et al., 2017]). Briefly, different concentrations of compound or PBS were incubated with 800 TCID50 live virus for 1 h at 4°C. Subsequently, PEG-6000 was added to a final concentration of 3% and incubated for another 1 h at 4°C. The virus was collected by centrifugation of the mixture at 13,000 rpm at 4°C for 30 min. The supernatant was discarded, and the virus was resuspended in 3% PEG-6000 containing 10 mg/mL BSA and centrifuged at 13,000 rpm at 4°C for 30 min. The above procedure was repeated twice to completely remove residual compounds. Finally, the virus particles were resuspended in 100 μL of medium and added to 100 μL of 3 × 10^4 MT-2 or CEMx 174 5.25 M7 cells. After 3-4 days of incubation at 37°C, 50 μL of supernatant per well were collected and mixed with the same volume of 5% Triton X-100. The p24 antigen was detected by ELISA.

HIV-1 Bal = assay: Inactivation of cell-free HIV-1 virions (PEG-6000 precipitation, p24 ELISA); assay type: cell-based; conditions: Human immunodeficiency virus 1, BAL; cell-free virions, 1 h at 4°C, PEG-6000 precipitation; read-out: EC50, inactivation of HIV-1 Bal
92/TH/009 (A/E, R5) = assay: Inactivation of cell-free HIV-1 clinical virus; assay type: cell-based; conditions: Human immunodeficiency virus 1, inactivation of cell-free virions, means ± SD
[8] = system: T2635-resistant virus K90E; assay type: cell-based, HIV-1; conditions: means ± SD

CC1(C)CC(NC(=O)C(=O)Nc2ccc(Cl)c(F)c2)CC(C)(C)N1C(=O)COc1ccc(CCN2C(=O)/C(=C/c3ccc(-c4ccc(Cl)c(C(=O)O)c4)o3)SC2=S)cc1 [FD028, (Z)-2-Chloro-5-(5-((3-(4-(2-(4-(2-((4-Chloro-3-Fluorophenyl)amino)-2-oxoacetamido)-2,2,6,6-Tetramethylpiperidin-1-yl)-2-oxoethoxy)phenethyl)-4-oxo-2-Thioxothiazolidin-5-ylidene)methyl)furan-2-yl)benzoic Acid]
EC50 [1]: 1200 ± 140 nM
IC50 (HIV-1 IIIB (X4)): 330 nM
IC50 (HIV-1 Bal (R5)): 70 nM
EC50 (SM145/GS 016 (C, R5)): 960 ± 90 nM
EC50 [2]: 630 ± 140 nM
EC50 (PBL288 (C, R5)): 540 ± 180 nM
EC50 (KNH1135 (A, R5)): 1230 ± 320 nM
IC50 [3]: 950 ± 60 nM
EC50 [4]: 360 ± 30 nM
IC50 [5]: 320 ± 80 nM
IC50 (T20-resistant virus V38A): 1090 ± 130 nM
EC50 [6]: 490 ± 30 nM
EC50 (D36G (NL4-3 WT)): 410 ± 20 nM
EC50 [7]: 490 ± 60 nM
IC50 (93/BR/020 (F, R5 and X4)): 380 ± 30 nM
CC50 at 48 h (Cytotoxicity (CCK-8); CEMx174 5.25 M7 cells, read-out: CC50, CEMx174 5.25 M7 cell): 18200 nM
CC50 at 48 h (Cytotoxicity (CCK-8); MT-2 cells, read-out: CC50, MT-2 cell): 29500 nM
EC50 (WT (LAI)): 40 ± 10 nM
EC50 (HIV-1 Bal): 660 nM
EC50 (92/TH/009 (A/E, R5)): 260 ± 60 nM
IC50 [8]: 790 ± 280 nM
